Test results from patent US12502362B2, “Inhibitors of nucleotidyltransferase superfamily enzymes as antibiotics” (priority 2017, dated 2025).
Values after ≈ are worked out from the molar mass of the structure shown. Read-outs that look alike come from different tables or passages of the source.

How the values were obtained:
[1] = system: MDR Acinetobacter baumannii; type: cell-based
From the text: (§1) All these MDR-bacteria are at least resistant to two classes of the antibiotics among five groups and/or specific antibiotics including quinolones/fluorquinolones, carbapenems, cephalosporins, aminoglycosides and piperacillin-tazobactam.

MDR E. coli = type: cell-based
From the text: as §1

Morganella morganii = assay: Antibiotic susceptibility of Morganella morganii strain; type: cell-based; conditions: Mm1 (Morganella morganii)
From the text: as §1

Klebsiella pneumonia = assay: Antibiotic susceptibility of Klebsiella pneumonia strains; type: cell-based
From the text: as §1

Citrobacter koseri = assay: Antibiotic susceptibility of Citrobacter koseri strain; type: cell-based; conditions: Ck1 (Citrobacter koseri)
From the text: as §1

[2] = system: Enterobacter cloacae complex; assay: Antibiotic susceptibility of Enterobacter cloacae complex strain; type: cell-based; conditions: Ecc1 (Enterobacter cloacae complex)
From the text: as §1

S. aureus (ATCC 29213) = assay: MIC80 on S. aureus; type: cell-based, Staphylococcus aureus; conditions: Staphylococcus aureus, ATCC 29213 / MSSA, read-out: MIC80 S. aureus, S. aureus ATCC 29213 (MSSA); ≥80% growth inhibition
Description: (§2) To further characterize the compounds, the minimal inhibitory concentration (MIC80) were determined for selected compounds. MIC80 is defined as the compound concentration at which ≥80% bacterial growth is inhibited compare to untreated controls. Meanwhile, for the selected compounds, cytotoxicity assays (CC50) were performed on a HepG2-derived hepatoblastoma cell line (HEPDES19). […] For CC50 evaluation, soluble tetrazolium dye (MTS) was used to measure mitochondrial toxicity in a human hepatoblastoma cell line (18). The bacteria (E. coli, S. saprophyticus and A. baumannii) used in MIC80 measurements were the same as that in the primary screening, but for Staphylococcus, S. aureus is used primarily because it is a common pathogen in Staphylococcaeae family, while S. saprophyticus is part of the normal human flora.

[3] = system: Staphylococcus saprophyticus (ATCC BAA-750); assay: MIC80 on S. saprophyticus; type: cell-based; conditions: Staphylococcus saprophyticus, ATCCBAA750; S. saprophyticus ATCC BAA-750; read-out: MIC80 S. sapro
Description: as §2

[4] = system: Acinetobacter baumannii (Abl, from a patient); assay: microbe, parasite or virus in culture; type: cell-based; conditions: for MIC80: Acinetobacter baumannii, read-out: MIC80 A. baumannii, A. baumannii Ab1, MDR patient isolate; for MIC80 A. baumannii: A. baumannii Ab1, MDR patient isolate
Description: as §2

E. coli (ATCC 35218) = assay: microbe, parasite or virus in culture; type: cell-based; conditions: for MIC80: Escherichia coli, ATCC35218, read-out: MIC80 E. coli, E. coli ATCC 35218; for MIC80 E. coli: E. coli ATCC 35218
Description: as §2

[5] = Cytotoxicity assay (CC50), MTS; type: cell-based, human; conditions: human, HEPDES19 cells
Description: as §2

[6] = system: S. aureus and/or S. saprophyticus; assay: MIC80 on S. aureus and/or S. saprophyticus; type: cell-based; conditions: read-out: MIC80 against S. aureus and/or S. saprophyticus
Description: as §2, with “(HEPDES19). […] For the MIC80 measurements, a 1.5 fold dilution series of the compounds was prepared in Mueller-Hinton II broth.” for “(HEPDES19).”, “flora. S. aureus (ATCC 29213) is methicillin-sensitive Staphylococcus aureus (MSSA) strain and it was used as a model strain to measure the MIC80.” for “flora.”

[7] = system: HepG2-derived hepatoblastoma cell line (HEPDES19); assay: Cytotoxicity assay (CC50), MTS; type: cell-based, human; conditions: HEPDES19 cells
Description: as §2

[8] = HepG2-derived hepatoblastoma cell line (HEPDES19)

Row | Molecule | Antibiotic susceptibility ([1]; Ab1 (Acinetobacter baumannii)) | Antibiotic susceptibility ([1]; Ab2 (Acinetobacter baumannii)) | Antibiotic susceptibility ([1]; Ab3 (Acinetobacter baumannii)) | Antibiotic susceptibility ([1]; Ab4 (Acinetobacter baumannii)) | Antibiotic susceptibility ([1]; Ab5 (Acinetobacter baumannii)) | Antibiotic susceptibility (MDR E. coli; Ec1 (E. coli)) | Antibiotic susceptibility (MDR E. coli; Ec2 (E. coli)) | Antibiotic susceptibility (MDR E. coli; Ec3 (E. coli)) | Antibiotic susceptibility (MDR E. coli; Ec4 (E. coli)) | Antibiotic susceptibility (MDR E. coli; Ec5 (E. coli)) | Antibiotic susceptibility (Morganella morganii) | Antibiotic susceptibility (Klebsiella pneumonia; Kp1 (Klebsiella pneumonia)) | Antibiotic susceptibility (Klebsiella pneumonia; Kp6 (Klebsiella pneumonia)) | Antibiotic susceptibility (Citrobacter koseri) | MIC80 (S. aureus (ATCC 29213)) [µM] | MIC80 [3] [µM] | MIC80 [4] [µM] | MIC80 (E. coli (ATCC 35218)) [µM] | MIC80 [6] [µM] | CC50 [5, 8] [µM] | further results
1 | CC1(C)S[C@@H]2[C@H](NC(=O)[C@H](N)c3ccccc3)C(=O)N2[C@H]1C(=O)O [AMP, Ampicillin] | R | R | R | R | R | R | R | R | R | R | R | R | R | – | – | – | – | – | – | – | –
2 | CC(C)(O/N=C(\C(=O)N[C@@H]1C(=O)N2C(C(=O)[O-])=C(C[n+]3ccccc3)CS[C@H]12)c1csc(N)n1)C(=O)O [CAZ, Ceftazidime] | R | R | R | R | R | R | R | R | R | R | R | R | R | R | – | – | – | – | – | – | Antibiotic susceptibility [2]: R
3 | Cc1nnc(SCC2=C(C(=O)O)N3C(=O)[C@@H](NC(=O)Cn4cnnn4)[C@H]3SC2)s1 [CFZ, Cefazolin] | R | R | R | R | R | R | R | R | R | R | R | R | R | R | – | – | – | – | – | – | –
4 | CO/N=C(\C(=O)N[C@@H]1C(=O)N2C(C(=O)O)=C(CSc3nc(=O)c(=O)[nH]n3C)CS[C@H]12)c1csc(N)n1 [CRO, Ceftriaxone] | R | R | R | R | R | R | R | R | R | R | I | R | R | S | – | – | – | – | – | – | Antibiotic susceptibility [2]: R
5 | CC(C)c1ccc(O)c(=O)c(O)c1 [Compound 46] | – | – | – | – | – | – | – | – | – | – | – | – | – | – | 19.8 (≈ 3.57 µg/mL) | 29.6 (≈ 5.33 µg/mL) | 100 (≈ 18 µg/mL) | 44.4 (≈ 8 µg/mL) | < 20 | – | CC50 [5]: < 50 µM
6 | O=c1ccccc(Br)c1O [Compound 54] | – | – | – | – | – | – | – | – | – | – | – | – | – | – | 16.1 (≈ 3.24 µg/mL) | 14.9 (≈ 3 µg/mL) | 44.4 (≈ 8.93 µg/mL) | 70.4 (≈ 14.2 µg/mL) | < 20 | > 50 | –
7 | O=C(Oc1cccccc1=O)c1ccccc1 [Compound 62] | – | – | – | – | – | – | – | – | – | – | – | – | – | – | 19.8 (≈ 4.48 µg/mL) | 10.3 (≈ 2.33 µg/mL) | 83.4 (≈ 18.9 µg/mL) | 111 (≈ 25.1 µg/mL) | < 20 | > 50 | –
8 | Cc1cc(O)c(=O)c(O)cc1C(=O)C1CCCCC1 [Compound 120] | – | – | – | – | – | – | – | – | – | – | – | – | – | – | 19.8 (≈ 5.19 µg/mL) | – | 83.4 (≈ 21.9 µg/mL) | 44.4 (≈ 11.6 µg/mL) | < 20 | < 50 | –
9 | O=c1c(O)ccc(-c2ccccc2)cc1O [Compound 262] | – | – | – | – | – | – | – | – | – | – | – | – | – | – | 19.8 (≈ 4.24 µg/mL) | 19.8 (≈ 4.24 µg/mL) | 100 (≈ 21.4 µg/mL) | 66.7 (≈ 14.3 µg/mL) | < 20 | > 50 | CC50 [7]: 57 µM
10 | Cc1cc(O)c(O)c(=O)c(O)c1 [Compound 272] | – | – | – | – | – | – | – | – | – | – | – | – | – | – | – | – | < 30 | 44.4 (≈ 7.47 µg/mL) | – | 10 | MIC80 A. baumannii [4]: 29.6 µM (≈ 4.98 µg/mL)
11 | Cc1cc(O)c(=O)c(O)cc1C(=O)c1cccs1 [Compound 308] | – | – | – | – | – | – | – | – | – | – | – | – | – | – | 44.4 (≈ 11.6 µg/mL) | 29.6 (≈ 7.76 µg/mL) | 32.1 (≈ 8.42 µg/mL) | < 30 | – | < 50 | MIC80 E. coli (E. coli (ATCC 35218)): 24.7 µM (≈ 6.48 µg/mL); CC50 [7]: 26 µM
12 | Cc1cc(O)c(=O)c(O)cc1C(=O)C1CC1 [Compound 310] | – | – | – | – | – | – | – | – | – | – | – | – | – | – | – | 44.4 (≈ 9.78 µg/mL) | < 30 | < 30 | – | > 50 | MIC80 A. baumannii [4]: 29.6 µM (≈ 6.52 µg/mL); MIC80 E. coli (E. coli (ATCC 35218)): 29.6 µM (≈ 6.52 µg/mL)
13 | Cc1cc(O)c(=O)c(O)cc1C(=O)c1ccccc1O [Compound 311] | – | – | – | – | – | – | – | – | – | – | – | – | – | – | 66.7 (≈ 18.2 µg/mL) | – | 44.4 (≈ 12.1 µg/mL) | < 30 | – | < 50 | MIC80 E. coli (E. coli (ATCC 35218)): 29.6 µM (≈ 8.06 µg/mL); CC50 [7]: 32 µM
14 | O=c1c(Br)cc(Br)cc(Br)c1O [Compound 350] | – | – | – | – | – | – | – | – | – | – | – | – | – | – | 2.6 (≈ 0.933 µg/mL) | – | 100 (≈ 35.9 µg/mL) | 100 (≈ 35.9 µg/mL) | < 20 | < 50 | CC50 [7]: 45 µM
15 | C[C@@H](O)[C@H]1C(=O)N2C(C(=O)O)=C(S[C@@H]3CN[C@H](C(=O)Nc4cccc(C(=O)O)c4)C3)[C@H](C)[C@H]12 [ETP, Ertapenem] | – | – | – | – | – | S | S | S | S | S | S | S | S | S | – | – | – | – | – | – | Antibiotic susceptibility [2]: S
16 | CO/N=C(\C(=O)N[C@@H]1C(=O)N2C(C(=O)[O-])=C(C[N+]3(C)CCCC3)CS[C@H]12)c1csc(N)n1 [FEP, Cefepime] | R | R | R | R | R | R | R | R | R | R | S | R | R | S | – | – | – | – | – | – | –
17 | C[C@@H](O)[C@H]1C(=O)N2C(C(=O)O)=C(SCCN=CN)C[C@H]12 [IPM, Imipenem] | S | I | I | I | R | S | S | S | S | S | S | S | S | S | – | – | – | – | – | – | Antibiotic susceptibility [2]: S
18 | C[C@@H](O)[C@H]1C(=O)N2C(C(=O)O)=C(S[C@@H]3CN[C@H](C(=O)N(C)C)C3)[C@H](C)[C@H]12 [MEM, Meropenem] | – | – | – | – | – | S | S | S | S | S | – | S | – | S | – | – | – | – | – | – | Antibiotic susceptibility [2]: S
19 | Ampicillin-Sulbactam [SAM] | S | S | S | S | I | R | I | I | R | R | R | R | R | – | – | – | – | – | – | – | –
